Laboratory results: ChEMBL document CHEMBL3784933, “Synthesis and antitumor evaluation of trimethoxyanilides based on 4(3H)-quinazolinone scaffolds” (2016)

Experiments:
Format in all cases: functional
[1] = Cytotoxicity against human UO31 cells assessed as growth inhibition at 10 uM after 48 hrs by SRB assay; details: UO-31, 48 h, read-out: GI
[2] = Cytotoxicity against human SF268 cells assessed as growth inhibition at 10 uM after 48 hrs by SRB assay; details: SF-268, 48 h, read-out: GI
NCI-H522 = assay: Cytotoxicity against human NCI-H522 cells assessed as growth inhibition at 10 uM after 48 hrs by SRB assay; details: NCI-H522, 48 h, read-out: GI
SK-MEL-2 = assay: Cytotoxicity against human SK-MEL-2 cells assessed as growth inhibition at 10 uM after 48 hrs by SRB assay; details: SK-MEL-2, 48 h, read-out: GI
[3] = Cytotoxicity against human OVCAR8 cells assessed as growth inhibition at 10 uM after 48 hrs by SRB assay; details: OVCAR-8, 48 h, read-out: GI
[4] = Cytotoxicity against human PC3 cells assessed as growth inhibition at 10 uM after 48 hrs by SRB assay; details: PC-3, 48 h, read-out: GI
[5] = Cytotoxicity against human Hs 578T cells assessed as growth inhibition at 10 uM after 48 hrs by SRB assay; details: read-out: GI
T47D = assay: Cytotoxicity against human T47D cells assessed as growth inhibition at 10 uM after 48 hrs by SRB assay; details: read-out: GI
Malme-3M = assay: Cytotoxicity against human MALME-3M cells assessed as growth inhibition at 10 uM after 48 hrs by SRB assay; details: read-out: GI
CCRF-CEM = assay: Cytotoxicity against human CCRF-CEM cells assessed as growth inhibition at 10 uM after 48 hrs by SRB assay; details: read-out: GI
[6] = Cytotoxicity against human SF295 cells assessed as growth inhibition at 10 uM after 48 hrs by SRB assay; details: SF-295, 48 h, read-out: GI
A498 = assay: Cytotoxicity against human A498 cells assessed as growth inhibition at 10 uM after 48 hrs by SRB assay; details: A498, 48 h, read-out: GI
[7] = Cytotoxicity against human OVCAR3 cells assessed as growth inhibition at 10 uM after 48 hrs by SRB assay; details: OVCAR-3, 48 h, read-out: GI
[8] = Cytotoxicity against human HOP92 cells assessed as growth inhibition at 10 uM after 48 hrs by SRB assay; details: HOP-92, 48 h, read-out: GI
SK-MEL-5 = assay: Cytotoxicity against human SK-MEL-5 cells assessed as growth inhibition at 10 uM after 48 hrs by SRB assay; details: SK-MEL-5, 48 h, read-out: GI
[9] = Cytotoxicity against human SNB75 cells assessed as growth inhibition at 10 uM after 48 hrs by SRB assay; details: SNB-75, 48 h, read-out: GI
[10] = Cytotoxicity against human SF539 cells assessed as growth inhibition at 10 uM after 48 hrs by SRB assay; details: SF-539, 48 h, read-out: GI
SN12C = assay: Cytotoxicity against human SN12C cells assessed as growth inhibition at 10 uM after 48 hrs by SRB assay; details: read-out: GI
[11] = Cytotoxicity against human UACC257 cells assessed as growth inhibition at 10 uM after 48 hrs by SRB assay; details: UACC-257, 48 h, read-out: GI
[12] = Cytotoxicity against human UACC62 cells assessed as growth inhibition at 10 uM after 48 hrs by SRB assay; details: UACC-62, 48 h, read-out: GI
[13] = Cytotoxicity against human SKOV3 cells assessed as growth inhibition at 10 uM after 48 hrs by SRB assay; details: SK-OV-3, 48 h, read-out: GI
[14] = Cytotoxicity against human BT549 cells assessed as growth inhibition at 10 uM after 48 hrs by SRB assay; details: BT-549, 48 h, read-out: GI
M14 = assay: Cytotoxicity against human M14 cells assessed as growth inhibition at 10 uM after 48 hrs by SRB assay; details: M14, 48 h, read-out: GI
[15] = Cytotoxicity against human NCI-ADR-RES cells assessed as growth inhibition at 10 uM after 48 hrs by SRB assay; details: read-out: GI
U-251 = assay: Cytotoxicity against human U251 cells assessed as growth inhibition at 10 uM after 48 hrs by SRB assay; details: U-251, 48 h, read-out: GI
A549 = assay: Cytotoxicity against human A549 cells assessed as growth inhibition at 10 uM after 48 hrs by SRB assay; details: A549, 48 h, read-out: GI
[16] = Cytotoxicity against human SNB19 cells assessed as growth inhibition at 10 uM after 48 hrs by SRB assay; details: SNB-19, 48 h, read-out: GI
MDA-MB-231 = assay: Cytotoxicity against human MDA-MB-231 cells assessed as growth inhibition at 10 uM after 48 hrs by SRB assay; details: MDA-MB-231, 48 h, read-out: GI
[17] = Cytotoxicity against human LOXIMVI cells assessed as growth inhibition at 10 uM after 48 hrs by SRB assay; details: LOX IMVI, read-out: GI
[18] = Cytotoxicity against human HCT15 cells assessed as growth inhibition at 10 uM after 48 hrs by SRB assay; details: HCT-15, 48 h, read-out: GI
SR = assay: Cytotoxicity against human SR cells assessed as growth inhibition at 10 uM after 48 hrs by SRB assay; details: read-out: GI
[19] = Cytotoxicity against human Caki1 cells assessed as growth inhibition at 10 uM after 48 hrs by SRB assay; details: CAKI-1, 48 h, read-out: GI
ACHN = assay: Cytotoxicity against human ACHN cells assessed as growth inhibition at 10 uM after 48 hrs by SRB assay; details: read-out: GI
MDA-MB-468 = assay: Cytotoxicity against human MDA-MB-468 cells assessed as growth inhibition at 10 uM after 48 hrs by SRB assay; details: MDA-MB-468, 48 h, read-out: GI
MCF7 = assay: Cytotoxicity against human MCF7 cells assessed as growth inhibition at 10 uM after 48 hrs by SRB assay; details: MCF7, 48 h, read-out: GI
K562 = assay: Cytotoxicity against human K562 cells assessed as growth inhibition at 10 uM after 48 hrs by SRB assay; details: K562, 48 h, read-out: GI
786-0 = assay: Cytotoxicity against human 786-0 cells assessed as growth inhibition at 10 uM after 48 hrs by SRB assay; details: 786-0, 48 h, read-out: GI
[20] = Cytotoxicity against human HCT116 cells assessed as growth inhibition at 10 uM after 48 hrs by SRB assay; details: HCT-116, 48 h, read-out: GI
[21] = Cytotoxicity against human RXF393 cells assessed as growth inhibition at 10 uM after 48 hrs by SRB assay; details: RXF 393, 48 h, read-out: GI
[22] = Cytotoxicity against human MOLT4 cells assessed as growth inhibition at 10 uM after 48 hrs by SRB assay; details: MOLT-4, 48 h, read-out: GI
NCI-H226 = assay: Cytotoxicity against human NCI-H226 cells assessed as growth inhibition at 10 uM after 48 hrs by SRB assay; details: NCI-H226, 48 h, read-out: GI
[23] = Cytotoxicity against human RPMI8226 cells assessed as growth inhibition at 10 uM after 48 hrs by SRB assay; details: RPMI-8226, 48 h, read-out: GI
[24] = Cytotoxicity against human NCI-H322 cells assessed as growth inhibition at 10 uM after 48 hrs by SRB assay; details: NCI-H322, 48 h, read-out: GI

Structure (SMILES): COc1cc2nc(SCC(=O)Nc3cc(OC)c(OC)c(OC)c3)n(-c3ccccc3)c(=O)c2cc1OC
- inhibition of growth at 10 µM [1]: 34%
- inhibition of growth at 10 µM [2]: 19%
- inhibition of growth at 10 µM (NCI-H522): 52%
- inhibition of growth at 10 µM (SK-MEL-2): 22%
- inhibition of growth at 10 µM [3]: 40%
- inhibition of growth at 10 µM [4]: 17%
- inhibition of growth at 10 µM [5]: 34%
- inhibition of growth at 10 µM (T47D): 15%
- inhibition of growth at 10 µM (Malme-3M): 20%
- inhibition of growth at 10 µM (CCRF-CEM): 18%
- inhibition of growth at 10 µM [6]: 11%
- inhibition of growth at 10 µM (A498): 28%
- inhibition of growth at 10 µM [7]: 12%
- inhibition of growth at 10 µM [8]: 32%
- inhibition of growth at 10 µM (SK-MEL-5): 10%
- inhibition of growth at 10 µM [9]: 20%
- inhibition of growth at 10 µM [10]: 17%
- inhibition of growth at 10 µM (SN12C): 11%
- inhibition of growth at 10 µM [11]: 26%
- inhibition of growth at 10 µM [12]: 19%
- inhibition of growth at 10 µM [13]: 12%
- inhibition of growth at 10 µM [14]: 13%
- inhibition of growth at 10 µM (M14): 15%
- inhibition of growth at 10 µM [15]: 10%
- inhibition of growth at 10 µM (U-251): 30%
- inhibition of growth at 10 µM (A549): 14%
- inhibition of growth at 10 µM [16]: 17%
- inhibition of growth at 10 µM (MDA-MB-231): 16%

Structure (SMILES): COc1cc(NC(=O)CCSc2nc3ccc(Cl)cc3c(=O)n2-c2ccc(F)cc2)cc(OC)c1OC
- inhibition of growth at 10 µM [17]: 24%
- inhibition of growth at 10 µM [1]: 51%
- inhibition of growth at 10 µM [18]: 16%
- inhibition of growth at 10 µM [2]: 19%
- inhibition of growth at 10 µM (SR): 23%
- inhibition of growth at 10 µM (NCI-H522): 55%
- inhibition of growth at 10 µM [19]: 34%
- inhibition of growth at 10 µM [4]: 51%
- inhibition of growth at 10 µM [5]: 34%
- inhibition of growth at 10 µM (T47D): 27%
- inhibition of growth at 10 µM (CCRF-CEM): 24%
- inhibition of growth at 10 µM [6]: 30%
- inhibition of growth at 10 µM (ACHN): 21%
- inhibition of growth at 10 µM (MDA-MB-468): 17%
- inhibition of growth at 10 µM (A498): 88%
- inhibition of growth at 10 µM (MCF7): 21%
- inhibition of growth at 10 µM (K562): 22%
- inhibition of growth at 10 µM (786-0): 19%
- inhibition of growth at 10 µM [20]: 13%
- inhibition of growth at 10 µM (SK-MEL-5): 20%
- inhibition of growth at 10 µM [9]: 59%
- inhibition of growth at 10 µM [10]: 10%
- inhibition of growth at 10 µM (SN12C): 18%
- inhibition of growth at 10 µM [11]: 25%
- inhibition of growth at 10 µM [21]: 25%
- inhibition of growth at 10 µM [22]: 28%
- inhibition of growth at 10 µM [12]: 22%
- inhibition of growth at 10 µM [14]: 12%
- inhibition of growth at 10 µM (NCI-H226): 18%
- inhibition of growth at 10 µM (U-251): 16%
- inhibition of growth at 10 µM [23]: 47%
- inhibition of growth at 10 µM (A549): 28%
- inhibition of growth at 10 µM [16]: 15%
- inhibition of growth at 10 µM [24]: 16%
- inhibition of growth at 10 µM (MDA-MB-231): 42%
